{ppp} = triphosphate
Tested on: HBV cccDNA
Test: cccDNA levels in HBV-infected RIG-I or MDA5 knockout HepG2-hNTCP cells (Southern blot)
Assay type: cell-based, HBV (Genotype D)
Conditions: HepG2-hNTCP-NT and HepG2-hNTCP-MKO cells, single treatment at 1 dpi, harvested 3 dpi
Method: FIGS. 6A-6D illustrate that F7 and poly-U/UC PAMP specifically signal IRF3 activation through RIG-I to suppress HBV cccDNA. (6A) F7 was administered for 24 hours to HepG2-hNTCP-NT (expressing non-targeting guide RNA), RKO (RIG-I knockout expressing RIG-I-targeting guide RNA), and MKO (MDA5-knock out expressing MDA5-targeting guide RNA). Cells were harvested and analyzed by immunoblot. The levels of protein expression by p-IRF3 (S386 phosphorylated, active IRF3), IRF3 (total IRF), IFIT1, RIG-I, and MDA5 relative to the expression level of tubulin were determined using respective antibodies. (6B) HepG2-hNTCP-NT, RKO, and MKO cells were treated with 100 ng,/ml of X-RNA or 100 ng/ml or 200 ng/ml of poly-U/UC PAMP for 24 hr. Cells were harvested and analyzed by immunoblot as in (6A). (6C and 6D) Cells were infected with HBV at moi of 1000 Geq/cell. After 24 hour cultures were treated with DMSO (−; negative control), CsA (treatment control), (6C) 10 μM) or F7 or (6D) X RNA or poly-U/UC PAMP. Three days later the cells were harvested, Hirt extracts prepared and subjected to Southern blot analysis using as HBV-DNA probe. The positions of mass markers are indicated. Values beneath each lane show percent cccDNA remaining compared to control treatment. […]

Q: Which cccDNA levels does the source give for O=C(Nc1ccc2nc(NC(=O)c3ccc4ccccc4c3)sc2c1)c1ccccc1 [F7, N-(6-benzamido-1,3-benzothiazol-2-yl)naphthalene-2-carboxamide] here?
A: reduced cccDNA levels

B1: poly-U/UC PAMP: ~100 nt PAMP motif from the HCV genome comprising 5′ppp and the poly U/UC region, recognized by RIG-I; formulated in liposome (nucleic acid)
chain: GGCCAUCCUGUUUUUUUCCCUUUUUUUUUUUCUUUUUUUUUUUUUUUUUUUUUUUUUUUUUUUUUUCUCCUUUUUUUUUCCUCUUUUUUUCCUUUUCUUUCCUUU
modifications: RNA, 5' {ppp}, backbone and methylation of C not given here; formulated in liposome
notes: ~100 nt PAMP motif from the HCV genome comprising 5′ppp and the poly U/UC region, recognized by RIG-I; formulated in liposome
Q: For B1, which cccDNA levels is on record?
A: cccDNA was suppressed
